Source: US20240166627A1, “Terpyridinedione compound or salt thereof, and preparation method and application thereof” (SHENZHEN SALUBRIS PHARMACEUTICALS CO., LTD., priority 2021, published 2024)
Converted amounts (≈) assume the structure as drawn.

Key:
[1] = test system: production of TNFα in U937; test: Releasing TNFα from U937 induced by LPS; assay type: cell-based; conditions: Homo sapiens, U-937; PMA-differentiated U937, LPS 100 ng/ml, 4 h; read-out: IC50 value that the compound inhibits the production of TNFα
Excerpt: Cytokine regulation in human monocytes has shown that the p38 pathway is the key to the biosynthesis of a plurality of pro-inflammatory cytokines including TNFα, IL-1β and IL-6. Therefore, the inhibition of the p38 MAPK pathway is to reduce inflammatory response by reducing the biosynthesis of the pro-inflammatory cytokines. […] This is a reflection of the effect of the compound in the present invention to facilitate reduction of inflammation, which is useful in the treatment of various diseases, including chronic inflammatory diseases, acute inflammatory diseases, or self-inflammatory diseases. The potency and efficacy of the p38 inhibitor in blocking cytokine production are evaluated using a human U937 cell line.
A 1640 medium with an article number being A10491-01, Gibco; penicillin-streptomycin with an article number being 15140-122, Gibco; fetal bovine serum with an article number being 10099-141C, Gibco; PBS with an article number being 10010-031, Gibco; LPS with an article number being L2880, Sigma; PMA with an article number being P1585, Sigma; dimethyl sulfoxide with an article number being D8418-1L, Sigma; and a TNFα kit with an article number being K151QWD-4, MSD.
A 96-well plate with an article number being 3599, Corning; a plate-vibrating device with an article number being QB-9002, QILINBEIER; a centrifuge with an article number being 5810R, Eppendorf; a carbon dioxide incubator with an article number being 371, Thermo; a counter with an article number being C10281, Gibco; a microscope with an article number being CKX41, OLYMPUS; and an MSD plate reader with an article number being 1201 MESO SECTOR 600, MSD.
U937, ATCC with an article number being CRL-1593.2.
About 2 mg of a drug is weighted; a mother solution is prepared to 10 mM (which is calculated by free alkali) by means of DMSO; and the mother solution is diluted 10-fold to 1 mM, and then is successively diluted 4-fold to 250 μM, 62.5 μM, 15.6 μM, 3.9 μM, 0.97 μM, 0.24 μM, and 0.061 μM. The above series of diluted DMSO drugs is diluted 20-fold as working solutions by using media.
At Day 0, 10000/well inoculation is performed, stimulation is performed for 48 h with 20 ng/ml of PMA, and culture is performed at 37° C., 5% CO2. • At Day 2, 1. Supernatant is removed from differentiated U937, cleaning is performed once with PBS, and 96 μl of the 1640 medium is added. • 2. 2 μl of the compound containing (DMSO with a final concentration being 0.1%), and culture is performed for 30 min at 37° C., 5% CO2. • 3. 2 μl of LPS (a final concentration being 100 ng/ml) is added, cells are stimulated, and culture is performed for 4 h at 37° C., 5% CO2. • 4. Centrifugation is performed, supernatant is taken, and content of TNFα in the supernatant is determined through ELISA.
The content of TNFα corresponding to each well is calculated by using a standard curve in the kit.
The compound IC50 is calculated by using a GraphPad nonlinear fitting formula, and for an experimental result, refer to Table 1.

p38α/MK2 complex = p38α/MK2 complex (Homo sapiens, UniProt P49137+Q16539); test: p38α/MK2 complex kinase screening experiment (IMAP FP); assay type: biochemical; conditions: p38α 0.2 nM, MK2 unactive 1 nM, HSP27 substrate 1 μM, ATP 10 μM; read-out: IC50 value that the compound inhibits p38α/MK2 complex
Procedure: A certain amount of a drug is weighted and prepared into a 10 mM of mother solution by using DMSO; the mother solution is diluted to 100 μM (100× working solution) in two steps; and then, the solution is diluted 3-fold to 33.33 μM, 11.11 μM, 3.70 μM, 1.23 μM, 0.41 μM, 0.14 μM, 0.046 μM, 0.015 μM, and 0.005 μM, successively. DMSO control is also arranged.
Then, a series of diluted DMSO drugs are diluted 25 folds with 1×IMAP Reaction Buffer as a 4× drug working solution.
10 gradient concentrations and 2 duplicated wells are set to each group of compounds; and a DMSO control group and a negative control group (DMSO, no ATP) are additionally set.
• c), after 1 h of incubation at room temperature, 1× Progressive Binding Solution is added to end the enzymatic reaction; after 30 min of incubation, a BMGPHERASTER FSX multifunctional microplate reader is used to detect a Fluorescence Polarization (FP) signal [FP(Ex485/Em520/Em520 nm)].

[2] = Determination of solubility; assay type: physicochemical; conditions: aqueous buffer, thermodynamic from solid, 37° C. 1 h
Procedure: About 0.5 mg of a to-be-tested sample in a centrifuge tube is weighted, an appropriate amount of DMSO is added to completely dissolve the sample, and then methanol is added to make up to 1 ml.
(If there are more pH values to be investigated, the preparation method may be deduced by analogy).
3. The prepared control solution and test solution are simultaneously put into a 37° C. water bath and heated for 1 h, after 1 h, the solutions are taken out and cooled to room temperature, and then the solutions are filtered with a 0.22 μm filter membrane for sample injection.
4. The concentration of the sample in the test solution is calculated according to C=(A*(ms/vs))/AS, and experiment results are shown in Table 2.
Note: ms, vs and AS are the weight, volume and peak area of the sample in the control solution, respectively.
A is the peak area of the test solution.

[3] = Pharmacokinetic experiment in Beagle dogs (IV and PO); assay type: in vivo; conditions: male, dog, plasma
Excerpt: Polyethylene glycol 400 (batch number: GORKREUT, Saen Chemical Technology (Shanghai) Co., Ltd.); DMSO (batch number: 20200319, GHTECH (Guangdong) Co., Ltd.); and normal saline (batch number: C20052604, Jiangxi Kelun Pharmaceutical Co., Ltd.). An LC-MS instrument (Thermo Fisher Ultimate 3000 UPLC, TSQ QUANTUM ULTRA TSQ Quantum GC).
5 male Beagle dogs with weights being 5 kg to 7 kg, purchased from Beijing Mars Biotechnology Co., Ltd. […]
After the above mixture is given to the dogs through intragastric administration (n=3) or intravenous administration (n=2), about 1 mL of blood is collected from the forelimb or hindlimb vein with a scalp needle, respectively, at 5 min (intravenous administration only), 15 min, 30 min, 1 h, 2 h, 4 h, 6 h, 8 h, 24 h to put into blood collection tubes containing EDTA-K2 anticoagulant; centrifugation is performed for 10 min at 4000 rpm to separate plasma; and then the tubes are stored at −80° C. for testing.
A certain amount of a test sample is accurately weighted and dissolved with DMSO to 2 mg/mL, as a stock solution. The stock solution is diluted to 30000, 10000, 3000, 1000, 300, 100, 50, 30, and 10 ng/mL by using acetonitrile:water (1:1), to obtain standard curve working solutions. 5 μL of the working solution is added to 45 μL of blank canine plasma; and well mixing is performed through vortex, to prepare into standard curve samples equivalent to plasma concentrations of 3000, 1000, 300, 100, 30, 10, 5, 3, and 1 ng/mL. 30 μL of the standard curve sample and the collected plasma sample (plasma collected at 5 min, 15 min, and 30 min of intravenous administration is diluted 5-fold) are added to 150 μL of a propranolol acetonitrile solution (internal standard, 50 ng/mL) to precipitate protein, then 100 μL of water is added to well mix through vortex; centrifugation is performed for 5 min at 4000 rpm; and supernatant is taken for LC-MS analysis. LC-MS detection conditions include the following.
Chromatographic column: Waters ACQUITY™ PREMIER HSS T3, 50*2.1 mm, 1.8 μm.
Mobile phase A: water (0.1% formic acid); mobile phase B: acetonitrile; flow rate: 0.5 mL/min; and gradient elution is shown in Table 3 below.
After LC-MS detection of blood drug concentration, and a non-compartment model of WinNonlin 6.1 software is adopted to calculate pharmacokinetic parameters of beagle dogs after administration.

p38α/MK2 complex, sequence (Q16539 whole entry): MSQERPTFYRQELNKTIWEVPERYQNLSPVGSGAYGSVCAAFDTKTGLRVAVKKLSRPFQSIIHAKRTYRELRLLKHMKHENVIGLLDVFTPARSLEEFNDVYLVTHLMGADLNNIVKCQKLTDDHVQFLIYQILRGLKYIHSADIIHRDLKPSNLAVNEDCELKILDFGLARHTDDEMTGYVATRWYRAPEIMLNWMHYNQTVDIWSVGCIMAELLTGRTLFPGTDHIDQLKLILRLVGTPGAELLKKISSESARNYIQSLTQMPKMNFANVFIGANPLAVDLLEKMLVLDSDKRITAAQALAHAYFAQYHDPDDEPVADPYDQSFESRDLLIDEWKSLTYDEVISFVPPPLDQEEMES
p38α/MK2 complex, sequence (P49137 whole entry): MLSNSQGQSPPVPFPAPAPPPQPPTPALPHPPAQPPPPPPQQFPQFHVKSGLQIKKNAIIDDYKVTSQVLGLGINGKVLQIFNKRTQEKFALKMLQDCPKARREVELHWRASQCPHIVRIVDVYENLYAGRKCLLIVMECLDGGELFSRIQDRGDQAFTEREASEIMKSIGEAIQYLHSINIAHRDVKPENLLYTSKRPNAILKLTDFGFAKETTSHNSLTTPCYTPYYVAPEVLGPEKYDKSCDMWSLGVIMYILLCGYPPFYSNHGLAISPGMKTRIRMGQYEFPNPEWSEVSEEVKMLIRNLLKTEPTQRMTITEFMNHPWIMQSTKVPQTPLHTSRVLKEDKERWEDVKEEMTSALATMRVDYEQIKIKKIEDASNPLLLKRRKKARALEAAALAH

IC50 [1] | IC50 (p38α/MK2 complex) | Compound | further results
2.84 nM | 2.26 nM | CCC(C)(O)c1cccn(-c2cc(-n3c(C)cc(OCc4ncc(F)cc4F)c(Cl)c3=O)c(C)cn2)c1=O (stereo not shown) [Embodiment 26, 3″-chloro-4″-((3,5-difluoropyridine-2-yl)methoxy)-3-(2-hydroxybutane-2-yl)-5′,6″-dimethyl-2H,2″H-[1,2′:4′,1″-terpyridine]-2,2″-diketone] | 
 | 2.85 nM | Cc1cnc(-n2cccc(C3CCOCC3)c2=O)cc1-n1c(C)cc(OCc2ncc(F)cc2F)c(Cl)c1=O [Embodiment 40, 3″-chloro-4″-((3,5-difluoropyridine-2-yl)methoxy)-5′,6″-dimethyl-3-(tetrahydro-2H-pyran-4-yl)-2H, 2″H-[1,2′:4′,1″-terpyridine]-2,2″-diketone] | 
 | 1.58 nM | Cc1cnc(-n2cccc(C(C)(C)O)c2=O)cc1-n1c(C)cc(OCc2ncc(F)cc2F)c(Br)c1=O [Embodiment 41, 3″-bromo-4″-((3,5-difluoropyridine-2-yl)methoxy)-3-(2-hydroxypropane-2-yl)-5′,6″-dimethyl-2H,2″H-[1,2′:4′,1″-terpyridine]-2,2″-diketone] | 
14.7 nM |  | Cc1cnc(-n2cccc(C(C)(C)O)c2=O)cc1-n1c(C)cc(OCc2ccccn2)c(Cl)c1=O [Embodiment 3] | solubility at 1 h ([2]; pH = 2.0, PBS buffer): 1290 µg/mL (≈ 2610 µM); solubility at 1 h ([2]; pH = 7.4, PBS buffer): 140 µg/mL (≈ 284 µM)
 |  | Cc1cnc(-n2cccc(C(C)(C)O)c2=O)cc1-n1c(C)cc(OCc2ncc(F)cc2F)c(Cl)c1=O (racemic) [Embodiment 1, 3″-chloro-4″-((3,5-difluoropyridine-2-yl)methoxy)-3-(2-hydroxypropane-2-yl)-5′,6″-dimethyl-2H,2″H-[1,2′:4′,1″-terpyridine]-2,2″-diketone] | AUC(0-t) ([3]; IV 1 mg/kg): 2870 ng·h/mL; Cmax ([3]; IV 1 mg/kg): 1510 ng/mL; clearance ([3]; IV 1 mg/kg): 6.15 mL/min/kg; bioavailability ([3]; PO 5 mg/kg vs IV 1 mg/kg): 229%
3.31 nM | 3.35 nM | Cc1cnc(-n2cccc(C(C)(C)O)c2=O)cc1-n1c(C)cc(OCc2ncc(Br)cc2F)c(Cl)c1=O [Embodiment 16, 3″-chloro-4″-((3-fluoro-5-bromopyridine-2-yl)methoxy)-3-(2-hydroxypropane-2-yl)-5′,6″-dimethyl-2H,2″H-[1,2′:4′,1″-terpyridine]-2,2″-diketone] | 
 |  | Cc1cnc(-n2cccc(C(C)(C)O)c2=O)cc1-n1c(C)cc(OCc2ncc(F)cc2F)cc1=O [Embodiment 2, 4″-((3,5-difluoropyridine-2-yl)methoxy)-3-(2-hydroxypropane-2-yl)-5′,6″-dimethyl-2H,2″H-[1,2′:4′,1″-terpyridine]-2,2″-diketone] | solubility at 1 h ([2]; pH = 2.0, PBS buffer): 192 µg/mL (≈ 388 µM); solubility at 1 h ([2]; pH = 7.4, PBS buffer): 234 µg/mL (≈ 474 µM)
1.73 nM | 1.33 nM | Cc1cnc(-n2cccc(C(C)(C)O)c2=O)cc1-n1c(C)cc(OCc2cccc(F)c2F)c(Cl)c1=O [Embodiment 17, 3″-chloro-4″-((2,3-difluorobenzyl)oxy)-3-(2-hydroxypropane-2-yl)-5′,6″-dimethyl-2H,2″H-[1,2′:4′,1″-terpyridine]-2,2″-diketone] | 
6.86 nM |  | Cc1cnc(-n2cccc(C(C)(C)O)c2=O)cc1-n1c(C)cc(OCc2ncccc2F)c(Cl)c1=O [Embodiment 20, 3″-chloro-4″-((3-fluoropyridine-2-yl)methoxy)-3-(2-hydroxypropane-2-yl)-5′,6″-dimethyl-2H,2″H-[1,2′:4′,1″-terpyridine]-2,2″-diketone] | solubility at 1 h ([2]; pH = 2.0, PBS buffer): 769 µg/mL (≈ 1500 µM); solubility at 1 h ([2]; pH = 7.4, PBS buffer): 773 µg/mL (≈ 1510 µM)
 | 3.14 nM | CCc1cnc(-n2cccc(C(C)(C)O)c2=O)cc1-n1c(C)cc(OCc2ncc(F)cc2F)c(Cl)c1=O [Embodiment 42, 3″-chloro-5′-ethyl-4″-((3,5-difluoropyridine-2-yl)methoxy)-3-(2-hydroxypropane-2-yl)-6″-methyl-2H,2″H-[1,2′:4′,1″-terpyridine]-2,2″-diketone] | 

Compound | IC50 [1] | IC50 (p38α/MK2 complex) | further results
Cc1cnc(-n2cccc(C(C)(C)O)c2=O)cc1-n1c(C)cc(OCc2ncc(F)cc2F)c(Cl)c1=O (single isomer, unassigned) [Comparative example 1A, reference compound] |  | 0.53 nM | 
